Data taken from patent publication US9462810B2, “Method for inactivating viruses with slightly acidic arginine” (AJINOMOTO CO., INC., priority 2007, dated 2016).
Where two headings read alike, the source gives them in different places.

Columns and labels:
[1] = test system: influenza virus A/Aichi (H3N2); format: cell-based; conditions: 0.15M, two minutes
Sendai viruses = experiment: Sendai virus inactivation by buffer solutions on ice for one hour, residual titer by plaque assay on Vero cells; format: cell-based; conditions: 0.7M, pH 4.0, on ice one hour
[2] = test system: herpes simplex viruses type 1, strain F (HSV-1); experiment: HSV-1 inactivation by buffer solutions on ice for one hour, residual titer by plaque assay on Vero cells; format: cell-based
[3] = test system: Influenza A viruses/Aichi; format: cell-based, Influenza A virus
BVDV = conditions: 16 mM, 30° C., 10 hours, pH 4.5; cited from earlier work
[4] = Concentration 0.07 M, pH 4.0 (Example 4)
[5] = Concentration 0.14 M, pH 4.0 (Example 4)
[6] = Concentration 0.21 M, pH 4.0 (Example 4)
[7] = Concentration 0.28 M, pH 4.0 (Example 4)

Compound	Virus Inactivating Efficiency (LRV) ([1]; pH 4.0, 21.6° C.)	Virus Inactivating Efficiency (LRV) ([2]; 0.35M, pH 4.0 (Example 3))	Virus Inactivating Efficiency (LRV) [2, 4]	Virus Inactivating Efficiency (LRV) [2, 5]	Virus Inactivating Efficiency (LRV) [2, 6]	Virus Inactivating Efficiency (LRV) [2, 7]	Virus Inactivating Efficiency (LRV) ([1]; pH 4.2, 21.6° C.)	also measured
CCCC(=O)N[C@@H](CCCNC(=N)N)C(=O)O [Nα-butyroyl-L-arginine]	4.05	>5.5	0.7	2.2	4.3	6.0		Virus Inactivating Efficiency (LRV) (Sendai viruses): >3.7; Virus Inactivating Efficiency (LRV) ([3]; 0.7M, pH 4.0, on ice one hour): 3.7
O=C1CC[C@@H](C(=O)O)N1 [PCA, pyrrolidone carboxylic acid]	4.05						2.95	
Cl.N=C(N)NCCC[C@H](N)C(=O)O [arginine hydrochloride]	3.87	4.2	0.5	1.1	2.2	3.1		Virus Inactivating Efficiency (LRV) ([2]; Concentration 0.35 M, pH 4.0 (Example 4)): 4.5; Virus Inactivating Efficiency (LRV) ([3]; 0.7M, 20 mM sodium acetate, pH 4.0, on ice one hour): 3.7; Virus Inactivating Efficiency (LRV) ([3]; 1M, pH 4.3, on ice one hour): 2.4
CCCCCCCC(=O)O [caprylic acid]								titer of BVDV decreased to (BVDV): 1/10000
O=C([O-])CC(O)(CC(=O)[O-])C(=O)[O-].[Na+].[Na+].[Na+] [sodium citrate, reference compound]	2.66						2.95	Virus Inactivating Efficiency (LRV) ([1]; pH 3.8, 21.6° C.): 2.74; maximum LRV ([1]; within the pH range of 3.8 to 4.2, 21.6° C.): ≤ 2.95; Virus Inactivating Efficiency (LRV) ([2]; 0.1M, pH 3.5, on ice one hour (Example 1)): >5.7; Virus Inactivating Efficiency (LRV) ([2]; 0.1M, pH 3.5, on ice one hour (Example 1), listed as citrate buffer solution): > 5.7; Virus Inactivating Efficiency (LRV) ([2]; 0.1M, pH 4.0, on ice one hour (Example 1)): 1.5; Virus Inactivating Efficiency (LRV) ([2]; 0.1M, pH 4.3, on ice one hour (Example 1)): 0.1; Virus Inactivating Efficiency (LRV) ([2]; 0.1M, pH 4.3, on ice one hour (Example 1), listed as citrate buffer solution): the inactivation did not take place; Virus Inactivating Efficiency (LRV) ([3]; 0.1M, pH 3.5, on ice one hour): 2.1; Virus Inactivating Efficiency (LRV) ([3]; 0.1M, pH 4.0, on ice one hour): 1.5; Virus Inactivating Efficiency (LRV) ([3]; 0.1M, pH 4.3, on ice one hour): 1.3
